Assay results taken from the supplement of paper PMC8612539.
In brackets after ≈: the same amount, converted by molar mass.

Columns and labels:
Enterococcus spp. = experiment: minimum inhibitory concentration (MIC)
Procedure: (§1)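 Broth microdilution MIC (Sensititre BOPO7F bovine plate, CLSI methods) of 19 antimicrobials against field isolates of P. multocida, M. haemolytica, H. somni (deep nasopharyngeal swabs) and E. coli, Enterococcus spp. (rectal swabs) from weaned dairy heifers. Incubation 16-24 h at 35 C. MIC is the lowest concentration preventing visible growth. Values with <= or > lie at the tested range limits. Trimethoprim-sulfamethoxazole is given as the trimethoprim component of a 1:19 mixture.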

Mannheimia haemolytica = experiment: minimum inhibitory concentration (MIC)
Procedure: as §1

CCN1CCN(c2cc3c(cc2F)c(=O)c(C(=O)O)cn3C2CC2)CC1 [Enrofloxacin]
minimum inhibitory concentration [µg/mL]
Settings | Enterococcus spp. | Mannheimia haemolytica
isolate (source animal id): 2 | 0.25 (≈ 0.696 µM) | –
isolate (source animal id): 8 | – | 0.5 (≈ 1.39 µM)
isolate (source animal id): 13 | – | 0.5 (≈ 1.39 µM)
isolate (source animal id): 18 | – | 0.5 (≈ 1.39 µM)
isolate (source animal id): 21 | – | 0.5 (≈ 1.39 µM)
isolate (source animal id): 25 | – | 0.5 (≈ 1.39 µM)
isolate (source animal id): 27 | – | 0.5 (≈ 1.39 µM)
isolate (source animal id): 28 | – | 1 (≈ 2.78 µM)
isolate (source animal id): 30 | – | 0.5 (≈ 1.39 µM)
isolate (source animal id): 31 | – | 1 (≈ 2.78 µM)
isolate (source animal id): 32 | – | 0.25 (≈ 0.696 µM)
isolate (source animal id): 34 | – | 0.5 (≈ 1.39 µM)
isolate (source animal id): 35 | > 2 | –
isolate (source animal id): 36 | – | 0.5 (≈ 1.39 µM)
isolate (source animal id): 37 | – | 1 (≈ 2.78 µM)
isolate (source animal id): 40 | – | 0.5 (≈ 1.39 µM)
isolate (source animal id): 41 | – | 0.5 (≈ 1.39 µM)
isolate (source animal id): 42 | 0.5 (≈ 1.39 µM) | –
isolate (source animal id): 43 | – | 0.5 (≈ 1.39 µM)
isolate (source animal id): 44 | 0.5 (≈ 1.39 µM) | –
isolate (source animal id): 46 | – | 0.5 (≈ 1.39 µM)
isolate (source animal id): 49 | – | 0.5 (≈ 1.39 µM)
isolate (source animal id): 50 | – | 0.5 (≈ 1.39 µM)
isolate (source animal id): 51 | – | 0.5 (≈ 1.39 µM)
isolate (source animal id): 52 | – | 0.5 (≈ 1.39 µM)
isolate (source animal id): 53 | – | 0.5 (≈ 1.39 µM)
isolate (source animal id): 55 | – | 0.5 (≈ 1.39 µM)
isolate (source animal id): 56 | – | 0.5 (≈ 1.39 µM)
isolate (source animal id): 57 | – | > 2
isolate (source animal id): 79 | 1 (≈ 2.78 µM) | –
isolate (source animal id): 88 | 0.25 (≈ 0.696 µM) | –
isolate (source animal id): 91 | 0.25 (≈ 0.696 µM) | –
isolate (source animal id): 92 | 1 (≈ 2.78 µM) | –
isolate (source animal id): 100 | – | 2 (≈ 5.56 µM)
isolate (source animal id): 103 | – | 0.5 (≈ 1.39 µM)
isolate (source animal id): 107 | – | 0.5 (≈ 1.39 µM)
isolate (source animal id): 108 | – | 0.5 (≈ 1.39 µM)
isolate (source animal id): 111 | 0.25 (≈ 0.696 µM) | –
isolate (source animal id): 112 | – | 0.5 (≈ 1.39 µM)
isolate (source animal id): 113 | – | > 2
isolate (source animal id): 121 | – | 0.5 (≈ 1.39 µM)
isolate (source animal id): 122 | 1 (≈ 2.78 µM) | 0.5 (≈ 1.39 µM)
isolate (source animal id): 123 | 0.5 (≈ 1.39 µM) | > 2
isolate (source animal id): 126 | – | 2 (≈ 5.56 µM)
isolate (source animal id): 133 | 1 (≈ 2.78 µM) | > 2
isolate (source animal id): 135 | – | > 2
isolate (source animal id): 138 | – | 2 (≈ 5.56 µM)
isolate (source animal id): 141 | – | > 2
isolate (source animal id): 142 | – | 1 (≈ 2.78 µM)
isolate (source animal id): 145 | – | 1 (≈ 2.78 µM)
isolate (source animal id): 149 | – | ≤ 0.12
isolate (source animal id): 151 | – | ≤ 0.12
isolate (source animal id): 152 | – | 1 (≈ 2.78 µM)
isolate (source animal id): 154 | – | ≤ 0.12
isolate (source animal id): 158 | 0.5 (≈ 1.39 µM) | –
isolate (source animal id): 159 | – | 1 (≈ 2.78 µM)
isolate (source animal id): 162 | – | 1 (≈ 2.78 µM)
isolate (source animal id): 168 | 0.5 (≈ 1.39 µM) | –
isolate (source animal id): 169 | 0.5 (≈ 1.39 µM) | –
isolate (source animal id): 170 | – | ≤ 0.12
isolate (source animal id): 171 | 0.5 (≈ 1.39 µM) | ≤ 0.12
isolate (source animal id): 172 | – | ≤ 0.12
isolate (source animal id): 173 | – | ≤ 0.12
isolate (source animal id): 175 | 1 (≈ 2.78 µM) | –
isolate (source animal id): 177 | 2 (≈ 5.56 µM) | –
isolate (source animal id): 179 | – | ≤ 0.12
isolate (source animal id): 180 | – | ≤ 0.12
isolate (source animal id): 181 | 0.5 (≈ 1.39 µM) | –
isolate (source animal id): 182 | 0.5 (≈ 1.39 µM) | –
isolate (source animal id): 183 | 0.5 (≈ 1.39 µM) | ≤ 0.12
isolate (source animal id): 186 | – | ≤ 0.12
isolate (source animal id): 187 | 0.5 (≈ 1.39 µM) | ≤ 0.12
isolate (source animal id): 188 | – | ≤ 0.12
isolate (source animal id): 190 | 0.5 (≈ 1.39 µM) | ≤ 0.12
isolate (source animal id): 191 | – | ≤ 0.12
isolate (source animal id): 192 | – | ≤ 0.12
isolate (source animal id): 194 | 0.5 (≈ 1.39 µM) | –
isolate (source animal id): 195 | 0.5 (≈ 1.39 µM) | –
isolate (source animal id): 197 | 0.5 (≈ 1.39 µM) | –
isolate (source animal id): 201 | – | ≤ 0.12
isolate (source animal id): 202 | – | ≤ 0.12
isolate (source animal id): 209 | – | ≤ 0.12
isolate (source animal id): 211 | 0.5 (≈ 1.39 µM) | ≤ 0.12
isolate (source animal id): 214 | 1 (≈ 2.78 µM) | –
isolate (source animal id): 220 | – | ≤ 0.12
isolate (source animal id): 221 | – | ≤ 0.12
isolate (source animal id): 222 | 0.5 (≈ 1.39 µM) | –
isolate (source animal id): 223 | 0.25 (≈ 0.696 µM) | ≤ 0.12
isolate (source animal id): 228 | 0.5 (≈ 1.39 µM) | –
isolate (source animal id): 230 | 0.5 (≈ 1.39 µM) | –
isolate (source animal id): 233 | – | 1 (≈ 2.78 µM)
isolate (source animal id): 235 | 0.5 (≈ 1.39 µM) | –
isolate (source animal id): 236 | 2 (≈ 5.56 µM) | –
isolate (source animal id): 237 | – | 1 (≈ 2.78 µM)
isolate (source animal id): 239 | 2 (≈ 5.56 µM) | –
isolate (source animal id): 241 | 0.5 (≈ 1.39 µM) | 1 (≈ 2.78 µM)
isolate (source animal id): 244 | 0.5 (≈ 1.39 µM) | –
isolate (source animal id): 246 | 0.5 (≈ 1.39 µM) | –
isolate (source animal id): 247 | 0.5 (≈ 1.39 µM) | –
isolate (source animal id): 250 | 0.25 (≈ 0.696 µM) | –
isolate (source animal id): 252 | > 2 | 0.5 (≈ 1.39 µM)
isolate (source animal id): 253 | – | 0.5 (≈ 1.39 µM)
isolate (source animal id): 259 | – | > 2
isolate (source animal id): 260 | – | 0.5 (≈ 1.39 µM)
isolate (source animal id): 262 | – | 1 (≈ 2.78 µM)
isolate (source animal id): 268 | 0.25 (≈ 0.696 µM) | –
isolate (source animal id): 282 | 1 (≈ 2.78 µM) | > 2
isolate (source animal id): 285 | 1 (≈ 2.78 µM) | –
isolate (source animal id): 287 | – | 0.5 (≈ 1.39 µM)
isolate (source animal id): 288 | – | ≤ 0.12
isolate (source animal id): 289 | 0.5 (≈ 1.39 µM) | –
isolate (source animal id): 290 | 0.5 (≈ 1.39 µM) | –
isolate (source animal id): 291 | – | ≤ 0.12
isolate (source animal id): 293 | – | 0.5 (≈ 1.39 µM)
isolate (source animal id): 296 | 0.5 (≈ 1.39 µM) | –
isolate (source animal id): 298 | 0.5 (≈ 1.39 µM) | 0.5 (≈ 1.39 µM)
isolate (source animal id): 299 | – | 0.5 (≈ 1.39 µM)
isolate (source animal id): 300 | – | ≤ 0.12
isolate (source animal id): 301 | 0.5 (≈ 1.39 µM) | –
isolate (source animal id): 302 | – | 0.5 (≈ 1.39 µM)
isolate (source animal id): 304 | – | 0.5 (≈ 1.39 µM)
isolate (source animal id): 306 | – | ≤ 0.12
isolate (source animal id): 308 | – | ≤ 0.12
isolate (source animal id): 309 | – | ≤ 0.12
isolate (source animal id): 310 | 1 (≈ 2.78 µM) | –
isolate (source animal id): 313 | – | 0.5 (≈ 1.39 µM)
isolate (source animal id): 318 | – | 0.25 (≈ 0.696 µM)
isolate (source animal id): 320 | 0.5 (≈ 1.39 µM) | ≤ 0.12
isolate (source animal id): 321 | – | 0.5 (≈ 1.39 µM)
isolate (source animal id): 323 | – | 0.5 (≈ 1.39 µM)
isolate (source animal id): 324 | – | 0.5 (≈ 1.39 µM)
isolate (source animal id): 326 | – | 0.5 (≈ 1.39 µM)
isolate (source animal id): 328 | – | 0.5 (≈ 1.39 µM)
isolate (source animal id): 329 | – | 0.5 (≈ 1.39 µM)
isolate (source animal id): 331 | 0.5 (≈ 1.39 µM) | –
isolate (source animal id): 333 | 0.5 (≈ 1.39 µM) | 0.5 (≈ 1.39 µM)
isolate (source animal id): 335 | – | 0.5 (≈ 1.39 µM)
isolate (source animal id): 338 | – | 0.5 (≈ 1.39 µM)
isolate (source animal id): 341 | > 2 | –
